Reference: patent US7560571B2, “Substituted pyrroles and imidazoles, compositions containing same, manufacturing process therefor and use thereof” (Aventis Pharma S.A., priority 2005, dated 2009)

Tests used:
human KDR enzyme = target: T1, human KDR enzyme (Homo sapiens, UniProt P35968); assay: KDR substrate phosphorylation inhibition, scintillation technique; type: biochemical; conditions: GST-KDR cytoplasmic domain, PLCγ substrate, 1 hour at 37° C.; read-out: KDR IC 50
T1 construct: The cytoplasmic domain of the human KDR enzyme was cloned in the form of a GST fusion; GST; made in house; host or cells: SF21 insect cells (baculovirus)
T1 sequence (P35968 786-1356 limits assumed): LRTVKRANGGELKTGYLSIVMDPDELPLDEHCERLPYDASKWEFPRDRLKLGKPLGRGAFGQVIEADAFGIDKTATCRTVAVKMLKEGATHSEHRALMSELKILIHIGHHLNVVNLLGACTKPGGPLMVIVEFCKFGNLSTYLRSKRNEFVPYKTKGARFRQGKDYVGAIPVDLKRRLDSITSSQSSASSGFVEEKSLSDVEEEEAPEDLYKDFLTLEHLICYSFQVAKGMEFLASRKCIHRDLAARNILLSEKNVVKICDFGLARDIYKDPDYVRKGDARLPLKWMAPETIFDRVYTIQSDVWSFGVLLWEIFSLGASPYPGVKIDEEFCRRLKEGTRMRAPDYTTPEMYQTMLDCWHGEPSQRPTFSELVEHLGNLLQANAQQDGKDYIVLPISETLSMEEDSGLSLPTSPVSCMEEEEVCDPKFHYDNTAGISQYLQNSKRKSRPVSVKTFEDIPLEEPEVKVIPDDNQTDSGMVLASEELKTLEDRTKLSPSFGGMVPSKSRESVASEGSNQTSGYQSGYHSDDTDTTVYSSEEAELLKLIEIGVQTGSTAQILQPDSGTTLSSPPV
Protocol: The inhibitory effect of the compounds is determined in an in vitro test of phosphorylation of substrate with the enzyme KDR via a scintillation technique (96-well plate, NEN).
The cytoplasmic domain of the human KDR enzyme was cloned in the form of a GST fusion in the pFastBac baculovirus expression vector. The protein was expressed in the SF21 cells and purified to about 60% homogeneity.
The KDR kinase activity is measured in 20 mM MOPS, 10 mM MgCl2, 10 mM MnCl2, 1 mM DTT, 2.5 mM EGTA, 10 mM b-glycerophosphate, pH=7.2, in the presence of 10 mM MgCl2, 100 μm Na3VO4, 1 mM NaF. 10 μl of the compound are added to 70 μL of kinase buffer containing 100 ng of KDR enzyme at 4° C. The reaction is initiated by adding 20 μL of solution containing 2 μg of substrate (SH2-SH3 fragment of PLCγ expressed in the form of a GST fusion protein), 2 μCi of γ^33P[ATP] and 2 μm of cold ATP. After incubation for 1 hour at 37° C., the reaction is stopped by adding 1 volume (100 μl) of 200 mM EDTA. The incubation buffer is removed, and the wells are washed three times with 300 μL of PBS. The radioactivity in each well is measured using a Top Count NXT radioactivity counter (Packard).
The background is determined by measuring the radioactivity in four different wells containing radioactive ATP and the substrate alone.
A total activity control is measured in four different wells containing all the reagents (γ^33P-[ATP], KDR and substrate PLCγ), but in the absence of compound.
The inhibition of the KDR activity with the compound of the invention is expressed as a percentage of inhibition of the control activity determined in the absence of compound.
Compound SU5614 (Calbiochem) (1 μm) is included in each plate as an inhibition control.

human FAK = target: T2, human FAK (Homo sapiens, UniProt Q05397); assay: FAK autophosphorylation inhibition, time-resolved fluorescence test (HTRF); type: biochemical; conditions: autophosphorylation of the enzyme, 15 μM ATP, 1 hour at 37° C.; read-out: FAK IC 50
T2 construct: The whole cDNA of human FAK, the N-terminal end of which has been labelled with histidine; made in house; host or cells: baculovirus expression system (pFastBac HTc)
T2 sequence (Q05397 whole entry): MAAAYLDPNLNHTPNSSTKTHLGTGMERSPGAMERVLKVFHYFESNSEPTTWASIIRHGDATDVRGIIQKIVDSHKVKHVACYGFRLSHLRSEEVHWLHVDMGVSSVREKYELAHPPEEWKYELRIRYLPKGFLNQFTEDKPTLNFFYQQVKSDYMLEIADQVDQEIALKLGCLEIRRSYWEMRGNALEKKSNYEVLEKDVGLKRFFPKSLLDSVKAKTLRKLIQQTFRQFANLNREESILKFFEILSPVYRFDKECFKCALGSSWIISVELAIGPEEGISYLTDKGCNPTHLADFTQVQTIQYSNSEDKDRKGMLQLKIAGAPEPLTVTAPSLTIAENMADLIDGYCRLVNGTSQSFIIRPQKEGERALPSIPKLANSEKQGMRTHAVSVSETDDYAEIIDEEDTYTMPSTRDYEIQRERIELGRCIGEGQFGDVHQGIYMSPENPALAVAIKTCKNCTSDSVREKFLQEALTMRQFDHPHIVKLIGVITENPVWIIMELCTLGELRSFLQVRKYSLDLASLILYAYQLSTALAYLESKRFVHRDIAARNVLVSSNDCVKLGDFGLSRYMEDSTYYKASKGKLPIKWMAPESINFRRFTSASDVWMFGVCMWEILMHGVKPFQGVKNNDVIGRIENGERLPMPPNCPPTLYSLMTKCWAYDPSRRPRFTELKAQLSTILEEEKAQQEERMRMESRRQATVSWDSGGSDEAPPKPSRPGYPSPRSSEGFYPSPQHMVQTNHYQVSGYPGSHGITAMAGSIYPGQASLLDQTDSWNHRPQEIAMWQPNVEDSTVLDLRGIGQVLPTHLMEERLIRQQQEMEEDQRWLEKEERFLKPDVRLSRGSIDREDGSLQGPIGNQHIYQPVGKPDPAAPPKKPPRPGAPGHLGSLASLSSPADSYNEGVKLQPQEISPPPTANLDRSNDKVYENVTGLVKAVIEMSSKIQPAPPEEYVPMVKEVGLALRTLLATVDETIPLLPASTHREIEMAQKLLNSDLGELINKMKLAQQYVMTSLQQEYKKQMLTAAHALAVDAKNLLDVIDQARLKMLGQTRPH
Protocol: The inhibitory activity of the compounds on FAK is determined by measuring the inhibition of autophosphorylation of the enzyme using a time-resolved fluorescence test (HTRF).
The whole cDNA of human FAK, the N-terminal end of which has been labelled with histidine, was cloned in a pFastBac HTc baculovirus expression vector. The protein was expressed and purified to about 70% homogeneity.
The kinase activity is determined by incubating the enzyme (6.6 μg/mL) with different concentrations of test compound in a 50 mM Hepes pH=7.2, 10 mM MgCl2, 100 μm Na3VO4, 15 μM ATP buffer for 1 hour at 37° C. The enzymatic reaction is stopped by adding Hepes pH=7.0 buffer containing 0.4 mM KF, 133 mM EDTA, 0.1% BSA and the labelling is performed, for 1 to 2 hours at room temperature, by adding to this buffer an anti-Histidine antibody labelled with XL665 and a tyrosine phosphospecific monoclonal antibody conjugated to europium cryptate (Eu-K). […] The long-lasting signal specific for XL-665 is measured in a Packard Discovery plate counter. All the tests are performed in duplicate and the average of the two tests is calculated. The inhibition of the autophosphorylation activity of FAK with compounds of the invention is expressed as a percentage of inhibition relative to a control whose activity is measured in the absence of test compound. […]

human Tie2 = target: T3, human Tie2 (Homo sapiens, UniProt Q02763); assay: Tie2 phosphorylation of PLC inhibition, FlashPlate radioactivity; type: biochemical; conditions: GST-Tie2, GST-PLC substrate, one hour at 37° C.; read-out: TIE2 IC 50
T3 construct: amino acids of the intracellular domain 776-1124; made in house; host or cells: baculovirus expression system (pFastBacGT)
T3 sequence (Q02763 776-1124): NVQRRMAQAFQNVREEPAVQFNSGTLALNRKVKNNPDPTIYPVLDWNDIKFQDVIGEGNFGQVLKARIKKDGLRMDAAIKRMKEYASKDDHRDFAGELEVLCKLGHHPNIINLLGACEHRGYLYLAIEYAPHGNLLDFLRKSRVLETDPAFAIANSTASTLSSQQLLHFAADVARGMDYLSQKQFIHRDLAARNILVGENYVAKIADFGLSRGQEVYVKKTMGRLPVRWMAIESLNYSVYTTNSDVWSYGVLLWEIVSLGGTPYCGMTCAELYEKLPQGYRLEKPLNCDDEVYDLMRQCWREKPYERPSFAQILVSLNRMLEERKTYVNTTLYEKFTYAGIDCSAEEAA
Protocol: The coding sequence of human Tie2 corresponding to the amino acids of the intracellular domain 776-1124 was generated by PCR using the cDNA isolated from a human placenta as a model. This sequence was introduced into a pFastBacGT baculovirus expression vector in the form of a GST fusion protein.
The inhibitory effect of the molecules is determined in a test of phosphorylation of PLC with Tie2 in the presence of GST-Tie2 purified to about 80% homogeneity. The substrate is composed of the SH2-SH3 fragments of PLC expressed in the form of a GST fusion protein.
The kinase activity of Tie2 is measured in a MOPS 20 mM pH 7.2 buffer, containing 10 mM MgCl2, 10 mM MnCl2, 1 mM DTT, 10 mM of glycerophosphate. In a 96-well FlashPlate plate maintained on ice, a reaction mixture is deposited, composed of 70 μL of kinase buffer containing 100 ng of enzyme GST-Tie2 per well. Next, 10 μL of the test molecule diluted in DMSO to a maximum concentration of 10% are added. For a given concentration, each measurement is performed four times. The reaction is initiated by adding 20 μL of solution containing 2 μg of GST-PLC, 2 μm of cold ATP and 1 μCi of ^33P[ATP]. After incubation for one hour at 37° C., the reaction is stopped by adding 1 volume (100 μl) of EDTA 200 mM. After removal of the incubation buffer, the wells are washed three times with 300 μL of PBS. The radioactivity is measured on a MicroBeta1450 Wallac.
The inhibition of the Tie2 activity is calculated and expressed as a percentage of inhibition relative to the control activity determined in the absence of compound.

Structure (SMILES) | melting point | IC50 (human KDR enzyme) | IC50 (human FAK) | IC50 (human Tie2)
NC(=O)c1[nH]cc(NC(=O)c2ccccc2)c1-c1ccc(NC(=O)Nc2cc(C(F)(F)F)ccc2F)cc1 [Example 7, 4-Benzoylamino-3-{4-[3-(2-fluoro-5-trifluoromethylphenyl)ureido]phenyl}-1H-pyrrole-2-carboxamide] | 239.7 °C | – | – | –
NC(=O)c1[nH]ccc1-c1ccc(NC(=O)Nc2cc(C(F)(F)F)ccc2F)cc1 [Example 1, 3-{4-[3-(2-Fluoro-5-trifluoromethylphenyl)ureido]phenyl}-1H-pyrrole-2-carboxamide] | – | 0.115 µM | 2.38 µM | 0.013 µM
Cl.NC(=O)c1[nH]cc(N)c1-c1ccc(NC(=O)Nc2cc(C(F)(F)F)ccc2F)cc1 | ~ 174 °C | – | – | –
CCOC(=O)c1c[nH]c(C(N)=O)c1-c1ccc(NC(=O)Nc2cc(C(F)(F)F)ccc2F)cc1 [Example 9, Ethyl 5-carbamoyl-4-{4-[3-(2-fluoro-5-trifluoromethylphenyl)ureido]phenyl}-1H-pyrrole-3-carboxylate] | 179 °C | 0.023 µM | – | 0.004 µM
NC(=O)c1[nH]cnc1-c1ccc(NC(=O)Nc2cc(C(F)(F)F)ccc2F)cc1 [Example 46, 5-{4-[3-(2-Fluoro-5-trifluoromethylphenyl)ureido]phenyl}-3H-imidazole-4-carboxamide] | 325 °C | – | – | –
NC(=O)c1[nH]cc(NC(=O)Nc2cc(C(F)(F)F)ccc2F)c1-c1ccc(NC(=O)Nc2cc(C(F)(F)F)ccc2F)cc1 [Example 4, 4-[3-(2-Fluoro-5-trifluoromethylphenyl)ureido]-3-{4-[3-(2-fluoro-5-trifluoro-methylphenyl)ureido]phenyl}-1H-pyrrole-2-carboxamide] | – | 0.352 µM | – | 0.111 µM

Further lines, results first:

melting point | IC50 (human KDR enzyme) | IC50 (human FAK) | IC50 (human Tie2) | Structure (SMILES)
196 °C | – | – | – | NC(=O)c1c[nH]c(C(N)=O)c1-c1ccc(NC(=O)Nc2cc(C(F)(F)F)ccc2F)cc1 [Example 40, 3-{4-[3-(2-Fluoro-5-trifluoromethylphenyl)ureido]phenyl}-1H-pyrrole-2,4-dicarboxamide]
228.5 °C | – | – | – | CC(=O)Nc1c[nH]c(C(N)=O)c1-c1ccc(NC(=O)Nc2cc(C(F)(F)F)ccc2F)cc1 [Example 5, 4-Acetylamino-3-{4-[3-(2-fluoro-5-trifluoromethylphenyl)ureido]phenyl}-1H-pyrrole-2-carboxamide]
178 °C | – | – | – | CN(C)CC(=O)Nc1c[nH]c(C(N)=O)c1-c1ccc(NC(=O)Nc2cc(C(F)(F)F)ccc2F)cc1 [Example 6, 4-(2-Dimethylaminoacetylamino)-3-{4-[3-(2-fluoro-5-trifluoromethylphenyl)-ureido]phenyl}-1H-pyrrole-2-carboxamide]
194 °C | – | – | – | NC(=O)c1[nH]cc(C(=O)O)c1-c1ccc(NC(=O)Nc2cc(C(F)(F)F)ccc2F)cc1 [Example 38, 5-Carbamoyl-4-{4-[3-(2-fluoro-5-trifluoromethylphenyl)ureido]phenyl}-1H-pyrrole-3-carboxylic acid]
– | 0.027 µM | – | 0.007 µM | NC(=O)c1[nH]cc(Cl)c1-c1ccc(NC(=O)Nc2cc(C(F)(F)F)ccc2F)cc1 [Example 44, 4-Chloro-3-{4-[3-(2-fluoro-5-trifluoromethylphenyl)ureido]phenyl}-1H-pyrrole-2-carboxamide]
